6 molecules from patent publication US11400078B2, “Methods of treatment for cholestatic and fibrotic diseases” (Genfit, priority 2016, dated 2022) can be followed below.

The test system of the first experiment is TGFβ1-induced expression of α-SMA protein in human HSC. As to the kind of experiment: α-SMA ELISA in TGFβ1-activated human primary hepatic stellate cells (single agents and NTZ/statin or TZ/statin combination matrix, EOB/EOHSA). It counts as cell-based. The following applies: Homo sapiens; hHSC, 1 h preincubation, TGFβ1 1 ng/mL, 48 h, ELISA; read-out: IC50, reduction of α-SMA level in TGFβ-induced HSC. The method, then:
After 48 hours of incubation, the expression of α-SMA was measured by ELISA. […] Data are presented as mean (triplicates)±standard deviation (SD). Statistical analyses were performed by one-way ANOVA followed by Bonferroni post-hoc tests, using Sigma Plot 11.0 software. […] After 48 hours of incubation, the expression of α-SMA was measured by ELISA. […] Data are presented as mean (triplicates)±standard deviation (SD). Statistical analyses were performed by one-way ANOVA followed by Bonferroni post-hoc tests, using Sigma Plot 11.0 software. […] Combinations were tested in a dose-response matrix format and analyzed according to the excess over Bliss (EOB) additivism model. Dilution series of NTZ (column) and pitavastatin (row) were prepared, including their respective DMSO controls. […] Data are presented as mean of quadruplicates. (B) EOB scores were calculated as described in Materials and Methods. Any compound pair with positive EOB values was considered synergistic (colored from light grey to black). […] Data are presented as mean (quadruplicates)±standard deviation (SD). Statistical analyses between single agent vs product combination were performed by student t-test or Mann-Whitney Rank Sum Test using Sigma Plot 11.0 software. [*: p<0.05; **: p<0.01; ***: p<0.001]. […] Cell-culture flasks were coated with poly-L lysine (Sigma cat #P4707) for a better adherence. The checkerboard matrix was adopted. NTZ or TZ and statin stocks were serially diluted in DMSO in a 5-points series in a row (statin) and a column (NTZ or TZ) of a 96-well plate. […] Then, 2-fold and 4-fold higher and lower concentrations were selected. […] The human primary hepatic stellate cells (hHSC) (Innoprot) were cultured under standard conditions, as described above. […] Plates were then incubated for 30 min on ice using a plate shaker, before storage at -20° C. The level of α-SMA was measured using a Sandwich ELISA. Briefly, the wells of an ELISA plate were first coated with the capture antibody (mouse monoclonal anti-ACTA2, Abnova) at 4° C. overnight. […] The cell lysates were transferred into the wells for binding to the capture antibody for a period of 2 h at room temperature. After the washing procedure, the detection antibody (biotinylated mouse monoclonal anti-ACTA2, Abnova) was added for 2 hours at room temperature followed by 3 washes. For the detection, an HRP-conjugated streptavidin (R&D Systems cat #DY998) was first applied for 30 min at room temperature. […] Upon oxidation, TMB forms a water-soluble blue reaction product that becomes yellow with addition of sulfuric acid (solution stop), enabling accurate measurement of the intensity at 450 nm using a spectrophotometer. The developed color is directly proportional to the amount of α-SMA present in the lysate. […] Expected Bliss additivism score (E) was firstly determined by the equation: E=(A+B)-(A×B) where A and B are the percentage inhibitions converted into fractions within a range of 0 to 1 of NTZ (A) and a given statin (B) at a given dose. […] For each product combination (NTZ+statin), an additional total Bliss score was calculated by summation of all EOB. […] The significance of the observed differences between NTZ/statin or TZ/statin and single agents were estimated by a student t-test or Mann-Whitney Rank Sum Test using Sigma Plot 11.0 software [*: p<0.05; **: p<0.01; ***: p<0.001].
As a reminder, the IC50 is the concentration at which inhibition is half-maximal. Regarding `CC(C)c1c(C(=O)Nc2ccccc2)c(-c2ccccc2)c(-c2ccc(F)cc2)n1CC[C@@H](O)C[C@@H](O)CC(=O)O` [atorvastatin], the concentration for half-maximal inhibition (IC50) fell in the range of 1000 to 3000 nM.

For the molecule `CC(C)n1c(/C=C/C(O)CC(O)CC(=O)O)c(-c2ccc(F)cc2)c2ccccc21` (stereo not drawn) [fluvastatin], the IC50 is below 1000 nM.

As for `CC[C@H](C)C(=O)O[C@H]1C[C@@H](C)C=C2C=C[C@H](C)[C@H](CC[C@@H]3C[C@@H](O)CC(=O)O3)[C@H]21` [lovastatin], the IC50 was in the range of 1000 to 3000 nM.

Consider `O=C(O)C[C@H](O)C[C@H](O)/C=C/c1c(C2CC2)nc2ccccc2c1-c1ccc(F)cc1` [pitavastatin], for which the IC50 is below 1000 nM.

Staying with this experiment, now noted: hHSC, TGFβ1 1 ng/mL, 48 h; result in words.
Regarding `CC[C@H](C)C(=O)O[C@H]1C[C@H](O)C=C2C=C[C@H](C)[C@H](CC[C@@H](O)C[C@@H](O)CC(=O)O)[C@H]21` [pravastatin], the “antifibrotic activity as single agent (α-SMA, dose-response)” value is “inactive”.

`CC(C)c1nc(N(C)S(C)(=O)=O)nc(-c2ccc(F)cc2)c1/C=C/[C@@H](O)C[C@@H](O)CC(=O)O` [rosuvastatin]: the “antifibrotic activity as single agent (α-SMA, dose-response)” value is given as “significant antifibrotic activity but only at the highest doses”.
